Experimental data: patent US20120138290A1, “METHODS TO STIMULATE BIOGENIC METHANE PRODUCTION FROM HYDROCARBON-BEARING FORMATIONS” (SYNTHETIC GENOMICS, INC., priority 2010, published 2012)
Where “and” joins values, the source holds several entries; their conditions need not be identical. Equal entries are not always repeated.

System: functional microbial subcommunity (inoculum 2L-245 from upflow reactor)
Assay: Stimulation of methane production: batch cultures with additive/stimulant, with or without coal, headspace methane by gas chromatography
Assay type: cell-based
Procedure: The availability of an inoculum of a functional microbial subcommunity capable of producing methane from coal in vitro prompted laboratory experiments where various stimulants were tested for their effect on methane production. […] The experiments were conducted at three different levels of additives (0.5×, 1× and 2×): additives (stimulants) were added in the following three concentrations. […] DMY media: DM media composition in milli-Q water is made as described above with the addition of 0.5 g/L yeast extract. DMSC media: DM media in milli-Q water is made as described above with the addition of 100 g/L sterile, anaerobic, sub-bituminous coal from the San Juan Basin. DMSCY media: DM media in milli-Q water is made as described above with the addition of 100 g/L sterile, anaerobic, sub-bituminous coal from the San Juan Basin and 0.5 g/L yeast extract. The coal used in these experiments originated from the San Juan Basin (BHP Billiton, Tex.). […] Each stimulant was tested in the presence or absence of coal. The experiments were conducted at three different concentrations of additives (0.5× (low), 1× (medium), and 2× (high)) as described above. Each sample type was conducted in 4 replicates. […] Control sample types were media alone, media plus coal, media plus yeast extract and media plus coal and yeast extract. At each time point, headspace measurements were taken using gas chromatography (microGC […], Agilent Technologies, Inc.). […] Each experiment was performed in quadruplicate. Methane at time 0 was assumed to be 0%.

[1] = DMSCY (coal), 2.0 mM KCl, week 1
[2] = DMSCY (coal), 2.0 mM KCl, week 3
[3] = DMSCY (coal), 2.0 mM KCl, week 5
[4] = DMSCY (coal), 4.0 mM KCl, week 1
[5] = DMSCY (coal), 4.0 mM KCl, week 3
[6] = DMSCY (coal), 4.0 mM KCl, week 5
[7] = DMSCY (coal), 8.0 mM KCl, week 1
[8] = DMSCY (coal), 8.0 mM KCl, week 3
[9] = DMSCY (coal), 8.0 mM KCl, week 5
[10] = DMY (no coal), 2.0 mM KCl, week 1
[11] = DMY (no coal), 2.0 mM KCl, week 3
[12] = DMY (no coal), 2.0 mM KCl, week 5
[13] = DMY (no coal), 4.0 mM KCl, week 1
[14] = DMY (no coal), 4.0 mM KCl, week 3
[15] = DMY (no coal), 4.0 mM KCl, week 5
[16] = DMY (no coal), 8.0 mM KCl, week 1
[17] = DMY (no coal), 8.0 mM KCl, week 3
[18] = DMY (no coal), 8.0 mM KCl, week 5

[Cl-].[K+] [KCl, potassium chloride]
methane production (Average) [1]: 0.34 | methane production (RepA-Rep D) [1]: 0.35 and 0.30 and 0.32 and 0.39 | methane production (Average) [2]: 1.14 | methane production (RepA-Rep D) [2]: 1.12 and 1.25 and 1.04 and 1.16 | methane production (Average) [3]: 1.39 | methane production (RepA-Rep D) [3]: 1.32 and 1.49 and 1.30 and 1.47 | methane production (Average) [4]: 0.4 | methane production (RepA-Rep D) [4]: 0.44 and 0.43 and 0.46 | methane production (Average) [5]: 1.50 | methane production (RepA-Rep D) [5]: 1.35 and 1.46 and 1.60 and 1.57 | methane production (Average) [6]: 1.69 | methane production (RepA-Rep D) [6]: 1.59 and 1.87 and 1.70 | methane production (Average) [7]: 0.3936 | methane production (RepA-Rep D) [7]: 0.3871 and 0.3364 and 0.4219 and 0.429 | methane production (Average) [8]: 1.327 | methane production (RepA-Rep D) [8]: 1.346 and 1.301 and 1.36 and 1.304 | methane production (Average) [9]: 1.562 | methane production (RepA-Rep D) [9]: 1.564 and 1.478 and 1.557 and 1.649 | methane production (Average) [10]: 0.30 | methane production (RepA-Rep D) [10]: 0.29 and 0.30 and 0.32 | methane production (Average) [11]: 0.81 | methane production (RepA-Rep D) [11]: 0.99 and 0.79 and 0.78 and 0.70 | methane production (Average) [12]: 0.77 | methane production (RepA-Rep D) [12]: 0.78 and 0.75 and 0.79 | methane production (Average) [13]: 0.23 | methane production (RepA-Rep D) [13]: 0.23 and 0.22 and 0.24 | methane production (Average) [14]: 0.26 | methane production (RepA-Rep D) [14]: 0.24 and 0.26 and 0.29 | methane production (Average) [15]: 0.29 | methane production (RepA-Rep D) [15]: 0.23 and 0.26 and 0.40 | methane production (Average) [16]: 0.2015 | methane production (RepA-Rep D) [16]: 0.2005 and 0.2037 and 0.195 and 0.2068 | methane production (Average) [17]: 0.2178 | methane production (RepA-Rep D) [17]: 0.2211 and 0.2119 and 0.2206 and 0.2177 | methane production (Average) [18]: 0.2151 | methane production (RepA-Rep D) [18]: 0.2177 and 0.2082 and 0.2231 and 0.2112 | effect on methanogenesis (absence of coal (DMY), >2 mM KCl): greatly decreased methanogenesis | trend in methane production (week 5, KCl-containing samples): decreasing trend
